In US20040058309A1, “Plasma supplement and use in liver assist systems” (priority 2003, published 2004):
Entries after “also recorded” stand apart in the source; their conditions may differ. Read-outs that look alike come from different tables or passages of the source.

Key:
[1] = system: Rat hepatocytes; experiment: Albumin synthesis rate of rat hepatocytes (collagen sandwich) exposed to supplemented citrated human plasma; format: cell-based; conditions: for Albumin synthesis (in words) vs plasma with BME amino acid supplementation: 10 mM as only amino acid supplementation of citrated plasma
Procedure: (§1) Type I collagen was prepared from Lewis rat tail tendons as previously described in Dunn et al. (supra). […] Six-well culture plates were coated with 0.5 ml of collagen gelling solution and the coated plates were incubated at 37° C. for 1 hour to allow for gelation. The hepatocytes were suspended in culture medium and seeded at a density of 1.0×10^6 cell per well. The standard hepatocyte culture medium consisted of DMEM supplemented with 10% FBS, 0.5 U/ml insulin, 14 ng/ml glucagon, 20 ng/ml EGF, 7.5 μg/ml hydrocortisone, 200 U/ml penicillin, and 200 μg/ml streptomycin. After incubating at 37° C. in a humidified gas mixture of 90% air/10% CO2 for 24 hours, the culture medium was removed and the cells were overlaid with a second 0.5 ml layer of collagen gelling solution to form the collagen sandwich. After gelling for 45 minutes at 37° C., 1 ml of fresh medium was added. Fresh medium (1 ml) was supplied to the cultures daily after removal of the previous day's medium. The hepatocytes were cultured for 6 days in standard culture medium prior to plasma exposure.
(§2) Expired plasma from a blood bank was pooled, aliquoted, and kept frozen until used for experiments. Plasma supplements were prepared in concentrated form and added individually to plasma as described in the following examples.
(§3) In each set of experiments, components of the supplementation to be included or excluded were designated according to the result from prior experiments. On the 7th day after isolation, the culture medium was removed and hepatocytes were fed with 1 ml of plasma. Cells were fed with fresh plasma daily thereafter. Control cultures were maintained in hepatocyte culture medium throughout. For the hormone study only, the 6-day-old collagen double-gel cultures were washed 10 times with unsupplemented DMEM to remove residual hormones in the collagen gel, and twice with medium or plasma identical to the following experimental condition.
(§4) Culture supernatants were collected daily after a 24 hour culture period. […] A standard curve was derived using background culture medium prepared by incubation with an empty collagen gel for the same period as the cell culture, and chromatographically purified rat albumin (Cappel Laboratories). Urea concentration in standard culture medium and in plasma was measured by the specific reaction of diacetyl monoxime with urea (Blood Urea Nitrogen Assay Kit, Sigma Diagnostics).
(§5) Rates of secretion were normalized to the number of cells initially seeded. […] The statistical significance of observed differences was determined by two-way analysis of variance and post hoc Tukey's test. An alpha value of 5% was considered significant.

[2] = system: Rat hepatocytes; experiment: Urea synthesis rate of rat hepatocytes (collagen sandwich) exposed to supplemented citrated human plasma; format: cell-based
Procedure: as §1, §2, §3, §4, §5

[3] = citrated human plasma + 5× medium concentrate, day 5 of plasma exposure, vs fully supplemented plasma

| Molecule | Effect on albumin synthesis of removing (or reducing) the component in the plasma supplementation [1, 3] | Effect on urea synthesis of removing (or reducing) the component in the plasma supplementation [2, 3] | also measured |
| --- | --- | --- | --- |
| [Ca+2].[Cl-].[Cl-] [calcium chloride] |  |  | Effect on albumin synthesis of removing (or reducing) the component in the plasma supplementation [1]: significantly less; Effect on urea synthesis of removing (or reducing) the component in the plasma supplementation [2]: significantly less |
| NC(=O)CC[C@H](N)C(=O)O [glutamine] |  |  | Albumin synthesis (in words) vs plasma with BME amino acid supplementation ([1]; day 5 of plasma exposure): significantly less albumin; Urea synthesis rate (in words) ([2]; 10 mM as only amino acid supplementation of citrated plasma, day 5 of plasma exposure): maintained |
| NCC(=O)O [glycine] |  |  | Albumin synthesis (in words) vs plasma with BME amino acid supplementation ([1]; day 5 of plasma exposure): significantly less albumin; Decrease of urea synthesis rate ([2]; 10 mM as only amino acid supplementation of citrated plasma, day 5 of plasma exposure, vs BME amino acids): 43% |
| C[C@]12CCC(=O)C=C1CC[C@@H]1[C@@H]2[C@@H](O)C[C@@]2(C)[C@H]1CC[C@]2(O)C(=O)CO [hydrocortisone, reference compound] | significantly reduced |  |  |
| [Cl-].[Cl-].[Mg+2] [magnesium chloride] |  |  | Effect on albumin synthesis of removing (or reducing) the component in the plasma supplementation [1]: significantly less; Effect on urea synthesis of removing (or reducing) the component in the plasma supplementation [2]: significantly less |
| [Cl-].[K+] [potassium chloride] | no significant effect | no significant effect |  |
| [Cl-].[Na+] [sodium chloride] | increased; also recorded: enhanced | increased; also recorded: enhanced |  |
| glucagon [reference compound] | significantly reduced | decreased significantly |  |
| insulin [reference compound] | significantly reduced |  |  |
